Test [1] concerns SMS-SB cells. The test is described as follows: Proliferation ([3H]-thymidine incorporation) of low cell density SMS-SB cultures. It is filed as cell-based, human. Conditions: 72 hr; for growth / thymidine incorporation of SMS-SB cells: LCD cultures, 2500 cells/well. The procedure:
For stimulation experiments, SMS-SB cells were cultured at 2500 cells/100 μl culture (low cell density, LCD) a seeding density at which the cells are prone to apoptose^15. NALM-6 cells were washed extensively in PFHM prior to culture at 2, 500 cells/100 μl culture. Cultures were propagated, in the presence or absence of cytokines, MAbs or peptides, at 37° C. for 72 hours followed by addition of 0.3 μCi/well tritiated thymidine ([^3H]-TdR) for 18 hours prior to harvest; incorporation was determined by liquid scintillation spectrometry. Apoptosis was determined by staining harvested cells with propidium iodide (PI) and Hoechst 33342 for 1 minute prior to analysis on a Coulter Elite flow cytometer as previously described^15. For stromal cell/SMS-SB co-cultures, 6000 stromal cells were seeded into individual wells of a 96-well tray and allowed to adhere for 24 hr; anti-CD23 MAb or isotype matched control and SMS-SB cells were added to the wells to give a total culture volume of 100 μl. SMS-SB cells were added at 5, 25 or 50 cells per well and cultures were allowed to expand over a 2-4 week period.
On the technique in general: Dividing cells build labelled thymidine or BrdU into new DNA.

The test system of test [2] is SMS-SB cells. The test is described as follows: Flow cytometry binding of biotinylated peptides to SMS-SB cells. It is filed as cell-based, human. From the text:
FIG. 3C:—Binding of biotinylated peptides to pre-B cell lines was detected by addition of PE-streptavidin and flow cytometry; mean fluorescence index (MFI) data were derived using CellQuest software. The flow cytometric plots for binding of peptides #9 (black line), #11 (grey line) and #57 (shaded area) are illustrated (Panel i), and MFI data for binding of the noted peptides to SMS-SB (Panel ii), Blin-1 (Panel iii) and Nalm-6 (Panel iv) are shown. The unique nine amino acid sequence of each biotinylated tridecapeptide is shown with the RKC motif shared by αvβ5 binding peptides shown in bold (Panel ii).
Binding of peptides to cells was visualised by treating cells exposed to biotinylated peptides with fluorochrome-conjugated streptavidin and scoring binding by flow cytometry; mean fluorescence intensity data were obtained using the CellQuest programme. In culture experiments, peptides were used in the 10 nM to […] concentration range and appropriate solvent vehicle controls (e.g., acetonitrile, DMSO) were always performed.
On the technique in general: In flow cytometry, cells or beads pass a laser one at a time.

Entries after “also recorded” stand apart in the source; their conditions may differ.

As to RGDS, the “effect of RGDS on SMS-SB growth / thymidine incorporation induced by peptides #9 and #12” value in the test on SMS-SB cells [1] (10 μg/ml RGDS) was “nor inhibits thymidine incorporation induced by peptides #9 and #12; also recorded: fails to block”. Further, the “effect of excess RGDS on peptide binding to SMS-SB cells” value in the test on SMS-SB cells [2] (ten-fold excess / 10 μg/ml RGDS) is recorded as “neither impedes peptide binding to SMS-SB cells; also recorded: fails to block binding of peptide #9 to SMS-SB cells”.

As for CKRQFNIWK [9-INV], in the test on SMS-SB cells [1], the “growth / thymidine incorporation of SMS-SB cells” value is reported as “reduces substantially, but does not ablate, its ability to elevate thymidine incorporation”. The “binding of biotinylated peptide to SMS-SB cells” value in the test with SMS-SB cells [2] (flow cytometry, MFI) is “does not reduce greatly binding”. As to fibronectin [Fn], the “growth / thymidine incorporation of SMS-SB cells” value in the test on SMS-SB cells [1] is on record as “neither Vn nor Fn sustain the growth of SMS-SB cells”.

B1: vitronectin (protein, UniProt P04004 20-478, looked up)
Vitronectin: DQESCKGRCTEGFNVDKKCQCDELCSYYQSCCTDYTAECKPQVTRGDVFTMPEDEYTVYDDGEEKNNATVHEQVGGPSLTSDLQAQSKGNPEQTPVLKPEEEAPAPEVGASKPEGIDSRPETLHPGRPQPPAEEELCSGKPFDAFTDLKNGSLFAFRGQYCYELDEKAVRPGYPKLIRDVWGIEGPIDAAFTRINCQGKTYLFKGSQYWRFEDGVLDPDYPRNISDGFDGIPDNVDAALALPAHSYSGRERVYFFKGKQYWEYQFQHQPSQEECEGSSLSAVFEHFAMMQRDSWEDIFELLFWGRTSAGTRQPQFISRDWHGVPGQVDAAMAGRIYISGMAPRPSLAKKQRFRHRNRKGYRSQRGHSRGRNQNSRRPSRATWLSLFSSEESNLGANNYDDYRMDWLVPATCEPIQSVFFFSGDKYYRVNLRTRRVDTVDPPYPRSIAQYWLGCPAPGHL
notes: extracellular matrix protein, RGD-containing αv ligand
B1: the “growth / thymidine incorporation of SMS-SB cells” value with SMS-SB cells [1] is “neither Vn nor Fn sustain the growth of SMS-SB cells”.

Source of the values: patent US20080261862A1, “Materials and Methods for Modulating Signalling by Alpha-V Integring Molecules” (priority 2004, published 2008).
